Reference: paper PMC5823469, “Unique pharmacological properties of serotoninergic G-protein coupled receptors from cestodes” (PLoS Neglected Tropical Diseases, 2018)
Where two headings read alike, the source gives them in different places.

Assays:
[1] = tested on: Mesocestoides corti tetrathyridia; assay: Motility index of tetrathyridia, WMicrotracker (light scattering)
Procedure: For the motility index measurement, the method of Camicia et al. was followed with minor modifications. In the case of E. granulosus, protoscoleces were mantained in RPMI medium with high glucose (Gibco, USA) with 50 μg/ml of gentamicin for no more than 48 hours in order to avoid the potential differentiation of the protoscolex towards premicrocyst. The day before the experiment the protoscoleces were transferred to U-shape 96-well microplates (Greiner Bio-One, Germany) with approximately 125 parasites per 100 μl per well. This number of parasites per well was empirically determined as the best number of worms to perform the experiments. Movement was measured as described for C. elegans using a worm tracker device (WMicrotracker Designplus SRL, Argentina) which determines the motility index by the light-microbeam (100 μm wide; k = 880 nm; intensity <1 mW) scattering produced by the movement of parasites. Quantification of the signal was performed by applying a mathematical algorithm previously described for sperm viability determination (Patent number: US4176953, year of submission: 1978, year of publication: 1979).
To study the effect of 5-HT on the motility of M. corti tetrathyridia, only one worm per well was used as this was the empirically determined optimal number. […] M. corti tetrathyridia were used fresh, immediately after the mice was opened. […]

[2] = target: 5-HT7Mco1 (Mesocestoides corti, UniProt A0A482LRJ4); assay: cell-based; type: cell-based
5-HT7Mco1, sequence (A0A482LRJ4 entry or part of it): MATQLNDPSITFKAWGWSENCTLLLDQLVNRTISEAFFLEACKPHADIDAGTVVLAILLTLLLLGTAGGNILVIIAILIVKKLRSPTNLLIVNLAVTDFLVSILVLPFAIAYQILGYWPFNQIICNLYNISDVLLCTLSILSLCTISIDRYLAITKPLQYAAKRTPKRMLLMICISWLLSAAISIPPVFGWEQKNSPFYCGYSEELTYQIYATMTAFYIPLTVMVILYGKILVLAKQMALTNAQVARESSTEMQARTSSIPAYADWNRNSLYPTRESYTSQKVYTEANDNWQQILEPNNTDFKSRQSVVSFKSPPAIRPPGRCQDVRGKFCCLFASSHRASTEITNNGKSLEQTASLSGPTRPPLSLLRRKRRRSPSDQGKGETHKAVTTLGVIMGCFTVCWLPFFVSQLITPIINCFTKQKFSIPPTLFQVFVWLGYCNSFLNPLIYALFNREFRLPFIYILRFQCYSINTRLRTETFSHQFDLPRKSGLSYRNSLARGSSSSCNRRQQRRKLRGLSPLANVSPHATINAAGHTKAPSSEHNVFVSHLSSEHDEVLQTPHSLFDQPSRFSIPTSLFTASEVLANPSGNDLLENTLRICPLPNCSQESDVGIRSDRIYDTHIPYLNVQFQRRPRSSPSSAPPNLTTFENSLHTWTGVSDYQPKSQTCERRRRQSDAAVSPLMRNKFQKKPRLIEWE
Procedure: (§1) HEK-293 cells (ATCC CRL-1573.3) were cultured in growth media [DMEM (Gibco), 10% heat inactivated fetal bovine serum (Gibco), penicillin (100units/mL), streptomycin (100μg/mL) and L-glutamine (290μg/mL)] and used for assays between passages 5 and 25. For cestode GPCR heterologous expression assays, cells were transfected (Lipofectamine 2000, Invitrogen) at 80% confluency approximately 16 hours after seeding within T-25 culture flasks with a 1:1 ratio of human codon optimized cestode GPCR cDNA (subcloned into a pcDNA3.1(-) mammalian expression vector) and cDNA encoding the pGloSensor 22-F plasmid (Promega). The following day, cells were trypsinized, centrifuged (300g/5min), resuspended in DMEM supplemented with 1% dialyzed FBS (Gibco) and plated in 96 well, solid white plates (Corning, cat # 3917). After overnight culture to allow adherence, media was exchanged for assay buffer (HBSS supplemented with 0.1% BSA, 20mM HEPES (pH 7.4), and GloSensor reagent (Promega). cAMP-luminescence assays were performed following addition of a phosphodiesterase inhibitor (3-isobutyl-1-methylxanthine, IBMX; 200μM) using a GloMax-Multi Detection System plate reader (Promega) as described previously.

[3] = tested on: Mesocestoides corti tetrathyridia; set-up: method as in PMID 12003065; details: 30 minutes of incubation; cited from earlier work
[4] = target: 5-HT7Egran1 (Echinococcus canadensis, UniProt A0A482LU10); assay: cell-based; type: cell-based, Echinococcus granulosus; details: for pharmacological behaviour (agonist/antagonist, efficacy) in cAMP assay: 5-HT7Egran1
5-HT7Egran1, sequence (A0A482LU10 entry or part of it): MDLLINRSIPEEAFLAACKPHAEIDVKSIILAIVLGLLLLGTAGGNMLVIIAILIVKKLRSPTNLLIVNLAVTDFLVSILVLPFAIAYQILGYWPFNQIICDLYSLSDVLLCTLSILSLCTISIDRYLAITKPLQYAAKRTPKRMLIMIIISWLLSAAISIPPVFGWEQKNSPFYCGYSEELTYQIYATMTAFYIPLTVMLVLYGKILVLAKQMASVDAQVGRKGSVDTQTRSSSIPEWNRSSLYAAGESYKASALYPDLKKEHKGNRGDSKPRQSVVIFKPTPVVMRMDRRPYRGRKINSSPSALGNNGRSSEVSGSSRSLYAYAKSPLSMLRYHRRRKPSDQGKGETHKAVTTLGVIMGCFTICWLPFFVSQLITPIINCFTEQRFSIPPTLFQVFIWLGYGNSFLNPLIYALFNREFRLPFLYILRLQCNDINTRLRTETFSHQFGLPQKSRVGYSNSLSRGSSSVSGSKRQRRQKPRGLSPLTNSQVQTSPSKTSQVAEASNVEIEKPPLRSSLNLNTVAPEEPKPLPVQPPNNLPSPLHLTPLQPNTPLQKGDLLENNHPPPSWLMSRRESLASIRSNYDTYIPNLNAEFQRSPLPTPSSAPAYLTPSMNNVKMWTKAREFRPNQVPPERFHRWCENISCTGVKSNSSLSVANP
Procedure: as §1

[5] = target: 5-HT7Egran2 (Echinococcus canadensis, UniProt A0A482LXK0); assay: cell-based; type: cell-based, Echinococcus granulosus
5-HT7Egran2, sequence (A0A482LXK0 entry or part of it): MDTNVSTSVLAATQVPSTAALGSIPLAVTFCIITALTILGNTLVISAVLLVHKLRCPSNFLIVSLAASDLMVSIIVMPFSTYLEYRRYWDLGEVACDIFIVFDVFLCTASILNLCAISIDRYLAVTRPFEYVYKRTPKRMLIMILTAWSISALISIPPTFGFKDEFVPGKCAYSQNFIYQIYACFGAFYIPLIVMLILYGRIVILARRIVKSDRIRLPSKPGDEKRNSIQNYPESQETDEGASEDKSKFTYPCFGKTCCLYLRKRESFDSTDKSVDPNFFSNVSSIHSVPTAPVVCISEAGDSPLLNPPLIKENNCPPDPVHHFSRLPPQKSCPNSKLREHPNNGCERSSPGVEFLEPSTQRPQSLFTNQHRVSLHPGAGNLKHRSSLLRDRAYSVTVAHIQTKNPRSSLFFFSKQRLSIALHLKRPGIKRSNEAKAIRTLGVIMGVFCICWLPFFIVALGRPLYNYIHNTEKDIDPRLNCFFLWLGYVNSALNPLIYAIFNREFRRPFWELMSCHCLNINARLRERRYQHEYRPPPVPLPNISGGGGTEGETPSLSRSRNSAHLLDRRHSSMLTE
Procedure: as §1

[6] = tested on: Mesocestoides corti tetrathyridia; assay: Motility of tetrathyridia by video imaging; details: period of 30 minutes
Procedure: In some experiments, alongside to the worm tracker motility analyses, the parasite motor activity was also measured with a digital video camera (Kodak easy share Z915 digital camera) coupled to an inverted microscope (Nikon, model TMS-F). Fresh parasites were processed in the same way as in previous sections in U-shape 96-well microplates, then incubated overnight at 37°C in a 5% CO2 atmosphere and finally video recorded with a digital camera after drug treatment. Images were obtained for a period of 15 seconds and the data were analyzed with ImageJ software (version 1.48, NIH, USA). […] To quantify this type of movements the method of Patocka et al. was followed with some modifications. The videos were transformed to stacks of TIFF images by using the Filmora video editor (Wondershare Filmora, version 8.2.3, downloaded from https://filmora.wondershare.es/) and then imported into ImageJ. First, the stacks were first converted to 8 bit type images. Next, the background was subtracted and then converted to a binary image by threshold adjust. […]
Statistical analyses were carried out using the GraphPad Prism Software package, version 6 for Windows (GraphPad Software, CA, USA). […] For image based assays, pixel changes in control and treatments were calculated and analyzed with one way ANOVA and Dunnett post-test were performed comparing all the concentrations with the control. […]

[7] = target: human 5-HT1A receptor; set-up: method as in PMID 24900203; details: cited from earlier work

Row | Structure (SMILES) | EC50 [2] [nM] | EC50 [4] [nM] | pharmacological behaviour (agonist/antagonist, efficacy) in cAMP assay ([2]; 5-HT7Mco1) | pharmacological behaviour (agonist/antagonist, efficacy) in cAMP assay [4] | pharmacological behaviour (agonist/antagonist, efficacy) in cAMP assay ([5]; 5-HT7Egran2) | EC50 [5] [nM] | other results
1 | NCCc1c[nH]c2ccc(O)cc12 [5-HT, 5-hydroxytryptamine] | 0.255 ± 0.063 | 171 ± 57 |  |  |  |  | concentration from which stimulation of motility is observed ([1]; 30 minutes of incubation, light scattering method): ≥ 500 µM; concentration from which a significant rise of motility is seen ([1]; period of two hours, WMicrotracker, up to 2000 μM): ≥ 100 µM; fold-change in luminescence signal on addition of 5-HT ([2]; cells expressing 5-HT7Mco1, basal coupling): ~ 2.5 fold; concentration previously reported to stimulate tetrathyridia motility [3]: 100 nM; fold-change in luminescence signal on addition of 5-HT ([4]; cells expressing 5-HT7Egran1): ~ 20 fold; EC50 ([5]; HEK-293 cells expressing 5-HT7Egran2, IBMX 200μM, read-out: EC50 for evoked cAMP production): 0.543 ± 0.107 nM; fold-change in luminescence signal on addition of 5-HT ([5]; cells expressing 5-HT7Egran2, basal coupling): ~ 3.3 fold; concentration necessary for significant changes in motility [6]: 1000 µM
2 | CN(C)c1cccc2c(S(=O)(=O)NCCCCC34CCCN3C(=O)N(CCCCN3CCN(c5cccc6ccccc56)CC3)C4=O)cccc12 (centres unmarked) [UCM120] |  |  |  |  |  |  | Ki [7]: 2 nM
3 | CCN(CC)C(=O)[C@@H]1C=C2c3cccc4[nH]cc(c34)C[C@H]2N(C)C1 [LSD, Lysergic acid diethylamide] | 4.4 ± 1 | 35 ± 6 | potently activated | potently activated | antagonist |  | IC50 [5]: 2.9 ± 0.2 nM
4 | CN1C[C@H](C(=O)N[C@]2(C)O[C@@]3(O)[C@@H]4CCCN4C(=O)[C@H](Cc4ccccc4)N3C2=O)C=C2c3cccc4[nH]cc(c34)C[C@H]21 [ergotamine] | 354 ± 62 | 290 ± 49 | higher efficacy partial agonist | low efficacy partial agonist | higher efficacy partial agonist | 234 ± 37 | 
5 | NCCc1c[nH]c2ccccc12 [tryptamine] | ~1000 |  |  |  |  | ~800 | cAMP response to neurotransmitter (activation) ([2]; 10μM, cells expressing 5-HT7Mco1): activator; sensitivity to tryptamine relative to 5-HT (fold less sensitive) ([2]; 5-HT7Mco1): at least 1000 fold; cAMP response to neurotransmitter (activation) ([5]; 10μM, cells expressing 5-HT7Egran2): activator; sensitivity to tryptamine relative to 5-HT (fold less sensitive) ([5]; 5-HT7Egran2): at least 1000 fold
